These results are taken from publication PMC7933930, “Development of a small molecule that corrects misfolding and increases secretion of Z α1‐antitrypsin” (EMBO Molecular Medicine, 2021).

For data set [1], the system named is α1‐antitrypsin. The data set can be described thus: SYPRO Orange thermal shift assay. It is filed as biochemical, human. To be noted: 50μM GSK716. The text has this:
Polymerisation of α1‐antitrypsin involves transition through a transient intermediate state known as M*, that is readily populated by the Z variant (Dafforn et al, 1999; Knaupp et al, 2010). The M* conformational ensemble appears to be a distinct species between the native state conformation and that of the final polymer. One of the hallmarks of M* is its recognition by environment‐sensitive fluorescent reporter dyes. Thermal shift assays that make use of the dye SYPRO Orange report the stability of the protein native state against heat‐induced unfolding. […] Native state stability can also be probed by equilibrium unfolding using chemical denaturants, where a peak in bis‐ANS fluorescence corresponds with a maximally populated unfolding intermediate (James & Bottomley, 1998). […] The association of GSK716 induced a marked quenching and blue‐shift of the α1‐antitrypsin intrinsic tryptophan fluorescence spectrum (Fig 4D, inset). The rate of change in fluorescence during association of 10µM GSK716 was proportional to the propensity of α1‐antitrypsin mutants to form polymers in vivo: inert (M), mild (S), moderate (Baghdad) and severe (Z) α1‐antitrypsin (Fig 4D, top and bottom). […]

The test system of data set [2] is serum albumin. The data set can be described thus: Circulating serum albumin in Z α1‐antitrypsin transgenic mice. It is filed as in vivo, mouse. The conditions noted are these: after 5 days of dosing. The method, then: A significant fraction of the total Z α1‐antitrypsin in the circulation is in the polymeric conformation (Tan et al, 2014). There are no antibodies that are specific for monomeric Z α1‐antitrypsin and so to directly determine its concentration, a deconvolution method was developed based on immunoassays with antibodies for either total or polymeric α1‐antitrypsin, and calibration curves with purified monomeric and polymeric Z α1‐antitrypsin. Monomeric Z α1‐antitrypsin was measured in plasma samples following 6 days of dosing, and levels were normalised to each animals’ pre‐dose control levels to account for the natural variation of Z α1‐antitrypsin between animals. […] Total drug levels and changes in Z α1‐antitrypsin following 3 days of dosing were indistinguishable from those following 6 days of dosing. There was no effect on circulating serum albumin after 5 days of dosing which provides evidence that GSK716 is specific for Z α1‐antitrypsin. Moreover, the effects are not mediated by metabolites of GSK716 as the major metabolites have much reduced or no binding to α1‐antitrypsin.

Data set [3] is described as follows: ChromLogD. The conditions noted are these: pH 7.4; pH7.4. It is filed as physicochemical. The method, then: ChromLogD was measured as previously described (Valkó et al, 1997).
Data set [4] has as its target LCK (Homo sapiens, UniProt P06239). The data set can be described thus: Off‐target panel: LCK. It is filed as biochemical. The conditions noted are these: Inhibition, read-out: Mean (PXC50). The protocol:
(§1) GSK716 selectivity and PK properties were profiled in order to investigate the suitability of GSK716 for progression into in vivo studies and the potential for taking it forward as a clinical candidate for testing in humans. Since GSK716 results in loss of inhibitory activity of α1‐antitrypsin, the effect of the compound was assessed on other closely related serpins. […] Furthermore, there were no off‐target effects in a panel of assays considered predictive of known safety liabilities that precluded further development of GSK716 (Table EV1).

The target in data set [5] is Serotonin transporter (Homo sapiens, UniProt P31645). Kind of data set: Off‐target panel: Serotonin transporter (DRX). It is filed as cell-based. The protocol:
as §1

Data set [6] deals with Phospholipidosis. Kind of data set: Off‐target panel: Phospholipidosis. It is filed as cell-based. The conditions noted are these: Induction (pMEC). The method, then: as §1
For data set [7], the target named is T1, Muscarinic M1 (Homo sapiens, UniProt P11229).
T1 sequence (P11229 1-460): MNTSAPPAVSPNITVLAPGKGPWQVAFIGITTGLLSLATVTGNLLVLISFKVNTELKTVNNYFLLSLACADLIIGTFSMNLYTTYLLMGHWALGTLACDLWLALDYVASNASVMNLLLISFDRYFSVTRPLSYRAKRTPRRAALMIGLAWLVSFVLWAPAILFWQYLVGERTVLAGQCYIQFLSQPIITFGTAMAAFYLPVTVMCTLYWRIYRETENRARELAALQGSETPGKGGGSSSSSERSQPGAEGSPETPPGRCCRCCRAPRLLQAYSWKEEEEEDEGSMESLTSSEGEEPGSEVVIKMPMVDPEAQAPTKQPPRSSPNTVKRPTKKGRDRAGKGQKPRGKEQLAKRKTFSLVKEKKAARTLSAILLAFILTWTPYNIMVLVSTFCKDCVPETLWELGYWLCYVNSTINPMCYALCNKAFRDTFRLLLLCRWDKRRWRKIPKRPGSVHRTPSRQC
Kind of data set: Off‐target panel: Muscarinic M1. It is filed as cell-based. The method, then:
as §1

For data set [8], the target named is PDE4B (Homo sapiens, UniProt Q07343). The data set can be described thus: Off‐target panel: PDE4B. It is filed as biochemical. To be noted: Inhibition, read-out: Mean (PXC50). The method, then:
as §1

A value given as a limit tells only on which side of the number the result lay.

Chain of LCK (P06239 whole entry, species assumed): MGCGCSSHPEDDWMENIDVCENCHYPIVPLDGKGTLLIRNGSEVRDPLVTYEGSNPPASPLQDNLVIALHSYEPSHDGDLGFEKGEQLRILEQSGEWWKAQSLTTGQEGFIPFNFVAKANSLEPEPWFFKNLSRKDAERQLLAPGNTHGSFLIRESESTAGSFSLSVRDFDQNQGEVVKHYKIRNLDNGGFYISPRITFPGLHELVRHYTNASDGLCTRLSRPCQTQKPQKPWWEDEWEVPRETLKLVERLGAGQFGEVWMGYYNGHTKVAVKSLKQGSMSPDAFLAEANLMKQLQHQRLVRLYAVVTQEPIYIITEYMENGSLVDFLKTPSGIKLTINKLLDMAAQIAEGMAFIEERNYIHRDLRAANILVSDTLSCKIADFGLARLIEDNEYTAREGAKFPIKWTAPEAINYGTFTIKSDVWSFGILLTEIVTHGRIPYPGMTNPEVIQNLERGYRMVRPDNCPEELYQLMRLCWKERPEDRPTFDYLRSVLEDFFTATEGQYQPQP
Chain of PDE4B (Q07343 whole entry, species assumed): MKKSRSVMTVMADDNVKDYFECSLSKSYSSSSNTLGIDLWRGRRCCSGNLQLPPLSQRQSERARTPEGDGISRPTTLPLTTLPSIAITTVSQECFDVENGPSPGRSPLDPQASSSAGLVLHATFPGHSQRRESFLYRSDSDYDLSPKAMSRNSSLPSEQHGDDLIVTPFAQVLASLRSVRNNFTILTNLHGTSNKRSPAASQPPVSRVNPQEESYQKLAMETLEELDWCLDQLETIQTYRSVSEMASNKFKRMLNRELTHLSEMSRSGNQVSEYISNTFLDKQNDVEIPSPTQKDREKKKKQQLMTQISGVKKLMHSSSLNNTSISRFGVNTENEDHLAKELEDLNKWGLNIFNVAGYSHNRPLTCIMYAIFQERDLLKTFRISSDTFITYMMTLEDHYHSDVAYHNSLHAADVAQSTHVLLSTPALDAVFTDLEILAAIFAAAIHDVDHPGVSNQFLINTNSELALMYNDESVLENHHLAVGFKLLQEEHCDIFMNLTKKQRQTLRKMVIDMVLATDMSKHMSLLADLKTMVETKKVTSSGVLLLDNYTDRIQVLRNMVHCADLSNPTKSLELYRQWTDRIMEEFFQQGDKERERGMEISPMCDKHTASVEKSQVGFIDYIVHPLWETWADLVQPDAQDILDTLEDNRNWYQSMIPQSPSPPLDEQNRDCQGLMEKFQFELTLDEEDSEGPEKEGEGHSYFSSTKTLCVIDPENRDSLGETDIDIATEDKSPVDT
Chain of Serotonin transporter (P31645 whole entry): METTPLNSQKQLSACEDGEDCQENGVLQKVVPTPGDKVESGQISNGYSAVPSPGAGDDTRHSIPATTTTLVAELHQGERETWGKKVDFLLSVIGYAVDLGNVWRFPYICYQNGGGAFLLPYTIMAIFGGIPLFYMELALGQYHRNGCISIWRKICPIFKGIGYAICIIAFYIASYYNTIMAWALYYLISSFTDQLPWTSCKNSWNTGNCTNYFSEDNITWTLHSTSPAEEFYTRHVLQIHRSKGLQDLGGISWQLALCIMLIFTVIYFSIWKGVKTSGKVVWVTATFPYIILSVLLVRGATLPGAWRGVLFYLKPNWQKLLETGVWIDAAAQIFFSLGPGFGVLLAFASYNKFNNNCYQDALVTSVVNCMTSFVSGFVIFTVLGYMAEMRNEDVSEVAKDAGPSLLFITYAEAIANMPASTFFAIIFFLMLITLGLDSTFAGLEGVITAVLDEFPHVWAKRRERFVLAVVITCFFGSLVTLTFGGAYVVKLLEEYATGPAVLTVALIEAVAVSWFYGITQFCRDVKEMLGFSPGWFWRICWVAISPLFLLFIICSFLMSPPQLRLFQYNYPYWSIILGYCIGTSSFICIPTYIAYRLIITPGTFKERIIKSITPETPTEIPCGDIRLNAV

Regarding `CCC[C@@H](NC(=O)c1cccc2c1CC(=O)N2)[C@@H](O)c1cccc(F)c1C` [GSK716], in data set [1], the transition midpoint temperature result was “marked increase”. Moreover, the “effect on circulating serum albumin” value in data set [2] was “no effect”. Further, in data set [3], the chromatographic logD was determined as 3.8. Also, the IC50 in data set [4] is above 31.6 µM; in data set [5], above 100 µM; in data set [7], above 50.1 µM; in data set [8] it was above 100 µM. Also, in data set [6], the “Mean (PXC50): pMEC” value is on record as “pMEC= 5.8”. This molecule yielded an EC50 in data set [7] above 50.1 µM.
